Laboratory results as given in patent publication US20220267258A1, “ROBENIDINE ANALOGS AS POTENT ANTIMALARIALS AGAINST DRUG-RESISTANT PLASMODIUM FALCIPARUM” (OREGON HEALTH & SCIENCE UNIVERSITY, priority 2021, published 2022).

How the values were obtained:
[1] = tested on: P. berghei; conditions: murine species P. berghei, 1970; cited from earlier work
[2] = tested on: human hepatoma derived HepG2 cells; assay: HepG2 cytotoxicity assay (resazurin); type: cell-based; conditions: HepG2, 24 hr drug, 24 hr recovery
Experimental: In this assay, HepG2 cells were incubated with test compounds for 24 hours, followed by a 24-hour recovery period and subsequent staining to evaluate for cytotoxic effects with resazurin. The ratio of the resulting HepG2 IC50 value to the P. falciparum D6 IC50 value can be considered an ‘in vitro therapeutic index,’ or IVTI.
Compounds were prepared as 10 mM stock solutions in DMSO. […] HepG2 cells were added to each well of flat bottom 96-well tissue culture plates at an initial density of 2×10^4 cells per well, and an initial volume of 160 μL complete medium per well. After an overnight incubation at 37° C. to adhere the cells to the culture plates, 40 μL drug solutions in complete medium were applied to each well at a final concentration range of 0 to 200 μM across each plate. Drugs were tested in triplicate or quadruplicate. The cells were incubated for 24 hours at 37° C. and 5% CO2 with the drug solutions, which were then aspirated and replaced with 200 μL per well of complete medium for an additional 24 hour incubation under the same conditions. To each well was added 20 μL of resazurin (Alamar Blue) in PBS buffer to a final concentration of 10 μM, and the plates were incubated for 3 hours. Fluorescence was measured at 560 nm excitation and 590 nm emission bands using a Spectramax iD3 plate reader. Fluorescence readings were normalized with respect to the untreated control wells and plotted against the logarithm of drug concentration.

[3] = tested on: Toxoplasma gondii; conditions: cited from earlier work
[4] = tested on: P. falciparum Tm90-C2B; assay: SYBR Green growth inhibition assay, P. falciparum Tm90-C2B; type: cell-based, Plasmodium falciparum; conditions: multi-drug resistant clinical isolate, also atovaquone resistant, 72 hr; read-out: IC50 Tm90-C2B
Experimental: (§1) In addition to the drug-sensitive P. falciparum D6 strain, the aminoguanidines were assessed against three drug-resistant strains (Tables 1-3).
(§2) The following parasite strains were used in this study and obtained through BEI Resources, NIAID, NIH. […] The culture medium used was RPMI-1640, supplemented with 25 mM HEPES buffer, 25 mg/L gentamicin sulfate, 45 mg/L hypoxanthine, 10 mM glucose, 2 mM glutamine, and 0.5% Albumax II (complete medium).^43 Cultures were maintained in a standard low oxygen atmosphere (5% O2, 5% CO2, 90% N2) in an environmental chamber and incubated at 37° C. Cultures were sub-passaged every 3-4 days into a fresh culture flask containing complete media and erythrocytes.
(§3) The aminoguanidine series was assessed for in vitro antiplasmodial activity using the fluorescence-based SYBR Green assay described previously by Smilkstein and co-workers.^38 Compounds were evaluated in quadruplicate in flat-bottomed Costar clear 96-well plates (Model #3585). A two-fold serial dilution of each compound was performed across the columns of the test plates starting with 20 μM and ending with a final untreated column to serve as control wells. Asynchronous parasite infected erythrocytes in growth media were added to each well for a total volume of 100 μL, final hematocrit of 2%, and initial parasitemia of 0.2%. The commercial malaria drugs atovaquone and chloroquine were used as control drugs. Test plates were incubated for 72 hr at 37° C. in an environmental chamber with a controlled low oxygen atmosphere (5% O2, 5% CO2, 90% N2). After the incubation period, 100 μL SYBR Green I dye-detergent solution was added to each well, and the plates were incubated at ambient temperature and atmosphere in the dark for at least one hour. Fluorescence was read at 497 nm excitation and 520 nm emission bands using a Spectramax iD3 plate reader. Fluorescence readings were normalized with respect to the untreated control wells representing normal parasite growth and plotted against the logarithm of drug concentration.

[5] = tested on: P. falciparum Dd2; assay: SYBR Green growth inhibition assay, P. falciparum Dd2; type: cell-based, Plasmodium falciparum; conditions: multi-drug resistant strain, 72 hr; read-out: IC50 Dd2
Experimental: as §1, §2, §3

[6] = tested on: P. falciparum strain D6; assay: SYBR Green growth inhibition assay, P. falciparum D6; type: cell-based, Plasmodium falciparum; conditions: pan-sensitive strain, 72 hr, asynchronous cultures in human erythrocytes; read-out: IC50 D6
Experimental: (§4) The in vitro activity of each compound in the aminoguanidine library was assessed against asynchronous cultures of Plasmodium falciparum parasites replicating within human erythrocytes (Tables 1-3). As the chemical development of robenidine was not discussed in its original publication in 1970^4 and limited structural information is available regarding its mechanism of action,^10 profiling was guided primarily by in vitro potency against the P. falciparum D6 strain cultured in human erythrocytes as described above.
as §2
as §3, with “The commercial malaria drugs atovaquone and chloroquine were used as control drugs.” left out

[7] = tested on: Plasmodium yoelii; assay: modified 4-day Peters test, murine malaria; type: in vivo, mice
Experimental: In this modified 4-day Peters test,^41 mice were inoculated with parasites from a donor mouse (day 0), and then dosed orally with drugs on each of the subsequent four days (days 1-4). On day 5 of the experiment, the parasitemia for each mouse was determined microscopically by examining methanol-fixed and Giemsa-stained blood smears. The ED50 represents the interpolated dose of a compound at which parasitemia was suppressed to one half that of untreated controls. Similarly, the ED90 represents the dose at which parasitemia is suppressed ten-fold. Mice were considered cured of their infection if no parasites were detected in the blood 30 days from the first drug administration, and the non-recrudescence dose (NRD) represents the lowest dose to achieve a cure.
The in vivo ED50 and ED90 of selected aminoguanidines was measured using a modified 4-day Peters test. Female CF1 mice from Charles River Laboratories were inoculated intravenously with approximately 2.5-5.0×10^4 parasitized erythrocytes (murine malaria P. yoelii, Kenya strain MR4 MRA-428) from a donor mouse (experiment day zero). On the following four days (experiment days 1-4), solutions of the test compounds in PEG-300 (or PEG-300 only for control mice) were administered by oral gavage once daily. […] Parasitemia of each mouse was determined by microscopic examination of Giemsa stained blood smears on day 5. ED50 and ED90 values were assessed by generating dose-response curves relative to untreated controls using Graphpad Prism (v. 8). Mice were considered cured of malarial infection if they maintained 0% parasitemia at experiment day 30. The procedures involved, together with all matters relating to the care, handling, and housing of the animals used in this study, were approved by the Portland VA Medical Center Institutional Animal Care and Use Committee.

[8] = murine microsomal stability; conditions: from t1/2, assumed murine hepatic blood flow 90 mL/min/kg
Experimental: To investigate the relationship between the aminoguanidines' in vivo efficacy and their metabolic properties, the murine microsomal stability of a selection of aminoguanidines was evaluated (Table 6). Robenidine, 16, 21, 1, and the control compound ketanserin were incubated with pooled murine liver microsomes and monitored for degradation by LC/MS/MS for one hour. The concentration vs. time plot for each compound was used to determine its biological half-life (t1/2) and predicted intrinsic clearance (Clint).
Metabolic stability studies of selected aminoguanidines were performed at ChemPartner, Shanghai, China. Compounds were incubated at 37° C. and 1 μM concentration in murine liver microsomes (Corning) for one hour at a protein concentration of 0.5 mg/mL in potassium phosphate buffer at pH 7.4 containing 1.0 mM EDTA. The metabolic reaction was initiated by NADPH and quenched with ice-cold acetonitrile at 15 minute increments up to one hour.

[9] = tested on: P. falciparum A6; assay: SYBR Green growth inhibition assay, P. falciparum A6; type: cell-based, Plasmodium falciparum; conditions: mutant line resistant to respiratory antagonists, 72 hr; read-out: IC50 A6
Experimental: as §1, §2, §3

[10] = tested on: Babesia microti; conditions: oral; cited from earlier work
[11] = tested on: P. falciparum strains; type: cell-based, Plasmodium falciparum
Experimental: as §4
All aminoguanidines synthesized were also evaluated against three multi-drug resistant P. falciparum strains (Dd2, Tm90-C2B, and A6) and for mammalian cell cytotoxicity.
as §1
as §3, with “The commercial malaria drugs atovaquone and chloroquine were used as control drugs.” left out

[12] = tested on: P. falciparum; conditions: P. falciparum in vitro, in words; cited from earlier work
[13] = tested on: Leishmania donovani; conditions: read-out: in vitro IC50; cited from earlier work
[14] = tested on: T. cuzi; conditions: read-out: in vitro IC50; cited from earlier work
[15] = tested on: T. brucei; conditions: read-out: in vitro IC50; cited from earlier work
[16] = oral gavage days 1-4, parasitemia day 5

For `N=C(N/N=C/c1ccc(Cl)cc1)N/N=C/c1ccc(Cl)cc1` [Robenidine], the activity in vivo [1] is given as “moderate activity”, the IC50 [2] is given as 30 µM and the “in vitro IC50” value [3] is given as 0.03 µg/mL. It also gave an IC50 [4] of 1.32 µM, an IC50 [5] of 0.814 µM and an IC50 [6] of 0.324 µM. For the same compound, the “P. yoelii ED50” value [7, 16] was 1.6 mg/kg/day, the “P. yoelii ED90” value [7, 16] was 4.9 mg/kg/day and the “P. yoelii NRD (non-recrudescence dose, cure dose)” value ([7]; oral, doses up to 25 mg/kg/day, no parasites at day 30) was over 25 mg/kg/day. The “Predicted Clint” value [8] was 34.40 mL/min/kg, the IC50 [9] was 0.41 µM and the “murine in vivo non-recrudescence dose” value [10] was 100 mg/kg/day.
Work on `N=C(NN=Cc1ccc(C(=O)O)cc1)NN=Cc1ccc(C(=O)O)cc1` [Compound 29] yielded an IC50 [2] of over 200 µM, an IC50 [4] of over 5 µM and an IC50 [5] of over 5 µM. The IC50 [6] was over 5 µM, the “activity against all tested P. falciparum strains” value [11] was “inactive” and the IC50 [9] was over 5 µM.
In the case of `Cl.Cl.Cl.N=C(N)c1cccc(/C=N/N=C(\N)N/N=C/c2cccc(C(=N)N)c2)c1` [CGP 40215A], the IC50 value [12] is listed as “low micromolar”, the IC50 [13] is listed as 18 µM and the IC50 [14] is listed as 20 µM. For the same compound, the IC50 [15] was 20 µM.
